These results are taken from ChEMBL document CHEMBL4619726, “Synthesis of novel tryptanthrin derivatives as dual inhibitors of indoleamine 2,3-dioxygenase 1 and tryptophan 2,3-dioxygenase” (Bioorg Med Chem Lett, 2020).

Data set [1] concerns the target T1, Tryptophan 2,3-dioxygenase (Homo sapiens, UniProt P48775). Briefly: Inhibition of recombinant human TDO expressed in Escherichia coli BL21 using L-Trp as substrate incubated for 30 mins by enzymatic assay.
Target sequence in this assay (P48775 whole entry): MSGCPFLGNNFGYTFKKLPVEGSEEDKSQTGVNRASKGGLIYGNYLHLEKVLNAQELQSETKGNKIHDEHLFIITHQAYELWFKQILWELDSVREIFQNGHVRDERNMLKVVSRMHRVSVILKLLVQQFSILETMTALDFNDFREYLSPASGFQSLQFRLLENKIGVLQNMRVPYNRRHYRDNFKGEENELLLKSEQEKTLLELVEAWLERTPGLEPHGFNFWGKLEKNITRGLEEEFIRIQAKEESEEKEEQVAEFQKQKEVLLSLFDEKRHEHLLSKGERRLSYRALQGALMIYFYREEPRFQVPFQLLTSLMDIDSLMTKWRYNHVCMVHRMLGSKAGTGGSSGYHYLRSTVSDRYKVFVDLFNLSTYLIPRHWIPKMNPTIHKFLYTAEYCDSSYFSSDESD
Data set [2] deals with T1, Tryptophan 2,3-dioxygenase. Briefly: Potency index, ratio of IC50 of 8-fluorotryptanthrin to IC50 of compound for inhibition of TDO (unknown origin).
Target sequence in this assay (P48775 whole entry, looked up): as the sequence (P48775 whole entry) above
In data set [3] the target is T2, Indoleamine 2,3-dioxygenase 1 (Homo sapiens, UniProt P14902). Put plainly: Inhibition of IDO1 (unknown origin).
A short description of data set [4]: Solubility of compound in water. The class given is physicochemical.
The target of data set [5] is T1, Tryptophan 2,3-dioxygenase. Put plainly: Potency index, ratio of IC50 of LM10 to IC50 of compound for inhibition of TDO (unknown origin).
Target sequence in this assay (P48775 whole entry, looked up): as the sequence (P48775 whole entry) above
Data set [6] has as its target T2, Indoleamine 2,3-dioxygenase 1. Put plainly: Inhibition of IDO1 in human HeLa cells. Type of data set: cell-based.

In brackets after ≈: the same amount, converted by molar mass.

T2 sequence (P14902 whole entry): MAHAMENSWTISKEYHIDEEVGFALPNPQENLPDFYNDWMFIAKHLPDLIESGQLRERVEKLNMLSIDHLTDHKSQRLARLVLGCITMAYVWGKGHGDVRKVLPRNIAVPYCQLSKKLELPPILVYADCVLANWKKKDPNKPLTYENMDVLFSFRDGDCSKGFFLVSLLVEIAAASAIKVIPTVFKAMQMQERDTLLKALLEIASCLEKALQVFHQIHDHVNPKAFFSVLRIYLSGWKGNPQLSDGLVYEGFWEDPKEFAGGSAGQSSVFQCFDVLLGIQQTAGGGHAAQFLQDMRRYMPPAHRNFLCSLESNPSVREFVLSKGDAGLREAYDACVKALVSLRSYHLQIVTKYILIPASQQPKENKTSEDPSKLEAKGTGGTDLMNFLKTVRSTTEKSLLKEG

`O=C(O)/C=C/c1ccc2nc3n(c(=O)c2c1)-c1ccc(F)cc1C3=O`: the values for the half-inhibitory concentration (IC50) in data set [1], in data set [3] and in data set [6] were 0.03 µM, 0.12 µM and 0.06 µM, respectively. The Ratio IC50 in data set [2] was determined as 32; in data set [5] it was 386. The molecule further gave a solubility in data set [4] of 1.12 µg/mL (≈ 3.34 µM).

As for `O=Cc1ccc2nc3n(c(=O)c2c1)-c1ccc(F)cc1C3=O`, the 50% inhibitory concentration (IC50) in data set [1] is 0.06 µM; in data set [3], 0.46 µM; in data set [6], 0.16 µM. Also, the Ratio IC50 in data set [2] is 16; in data set [5] it was 193. Moreover, the solubility in data set [4] came out at 0.862 µg/mL (≈ 2.93 µM).

As to `CC1(C)OB(c2ccc3nc4n(c(=O)c3c2)-c2ccc(F)cc2C4=O)OC1(C)C`, the results for the IC50 in data set [1], in data set [3] and in data set [6] were 6.02 µM, 13.1 µM and 0.75 µM, respectively. For the same molecule, in data set [4], the concentration in solution (solubility) came to 0.625 µg/mL (≈ 1.59 µM).

In the case of `COC(=O)C1CCCN1Cc1ccc2nc3n(c(=O)c2c1)-c1ccc(F)cc1C3=O` (stereo not drawn), the concentration for half-maximal inhibition (IC50) stood at 0.3 µM in data set [1], 0.46 µM in data set [3] and 0.7 µM in data set [6]. The solubility in data set [4] was 0.893 µg/mL (≈ 2.19 µM).

In the case of `COC(=O)C1CCCN(Cc2ccc3nc4n(c(=O)c3c2)-c2ccc(F)cc2C4=O)C1` (stereo not drawn), the IC50 in data set [1] is 2.87 µM; in data set [3], 1.43 µM; in data set [6], 0.37 µM. In addition, the solubility in data set [4] is 1.09 µg/mL (≈ 2.58 µM).

Consider `O=C1c2cc(F)ccc2-n2c1nc1ccc(Cn3ccnn3)cc1c2=O`, for which the IC50 in data set [1] was 1.13 µM; in data set [3], 0.78 µM; in data set [6], 0.08 µM. The molecule also showed a solubility in data set [4] of 1.28 µg/mL (≈ 3.69 µM).

For the molecule `COC(=O)C1CCN(Cc2ccc3nc4n(c(=O)c3c2)-c2ccc(F)cc2C4=O)CC1`, the IC50 in data set [1] is 0.99 µM; in data set [3], 1.2 µM; in data set [6], 0.15 µM. For the same molecule, in data set [4], the solubility was found to be 1.05 µg/mL (≈ 2.5 µM).

`O=C1c2cc(F)ccc2-n2c1nc1ccccc1c2=O`: the solubility in data set [4] amounted to 0.741 µg/mL (≈ 2.78 µM).

Turning to `O=C1c2cc(F)ccc2-n2c1nc1ccc(CN3CCC(C(=O)O)CC3)cc1c2=O`, the figures for the concentration for half-maximal inhibition (IC50) in data set [1], in data set [3] and in data set [6] were 0.45 µM, 0.48 µM and 3.1 µM, respectively. The same molecule came in with a solubility in data set [4] of 16.7 µg/mL (≈ 40.9 µM).

Turning to `CCOC(=O)/C=C/c1ccc2nc3n(c(=O)c2c1)-c1ccc(F)cc1C3=O`, the IC50 came out at 0.37 µM in data set [1], 0.19 µM in data set [3] and 0.02 µM in data set [6]. Also, in data set [4], the solubility came out at 0.735 µg/mL (≈ 2.02 µM).

With `O=C1c2cc(F)ccc2-n2c1nc1ccc(CN3CCCC3C(=O)O)cc1c2=O` (stereo not drawn), the half-inhibitory concentration (IC50) came out at 0.18 µM in data set [1], 0.55 µM in data set [3] and 3.76 µM in data set [6]. This molecule displayed a solubility in data set [4] of 15.4 µg/mL (≈ 39.1 µM).

Take `O=C1c2cc(F)ccc2-n2c1nc1ccc(CN3CCCC(C(=O)O)C3)cc1c2=O` (stereo not drawn): the 50% inhibitory concentration (IC50) in data set [1] was 0.42 µM; in data set [3], 0.57 µM; in data set [6], 1.84 µM. In addition, the solubility in data set [4] was found to be 14.3 µg/mL (≈ 35.1 µM).

On to `O=C1c2cc(F)ccc2-n2c1nc1ccc(B(O)O)cc1c2=O`, for which the IC50 came out at 1.21 µM in data set [1], 1.79 µM in data set [3] and 0.23 µM in data set [6]. The solubility in data set [4] is 0.69 µg/mL (≈ 2.23 µM).

One may read the IC50 as the concentration that gives 50% inhibition. Broadly, the solubility is the dissolved amount per volume that the medium holds. A higher solubility goes with a readily soluble substance.
